We go through 10 compounds from patent US7897602B2, “Indolinone compounds as kinase inhibitors” (Development Center for Biotechnology, priority 2009, dated 2011).

SMILES strings stand for the structures. Where a name gives a salt, the structure may show the parent alone.

The target of assay [1] is T1, VEGFR2 kinase (Homo sapiens, UniProt P35968).
T1 construct: recombinant N-terminal 6×His-tagged VEGFR2 kinase domain construct expressed by baculovirus; 6xHis (N); made in house
As to the kind of experiment: VEGFR2 kinase assay (33P incorporation into Poly(Glu-Tyr)). In kind it is biochemical. The settings on record: 500 nM test compound; read-out: Inhibition at 500 nM (%) VEGFr-2. In short, it runs like this: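 Recombinant baculovirus-expressed N-terminal His6-tagged VEGFR2 kinase domain (6.25 ng) phosphorylated poly(Glu-Tyr) 4:1 with 100 μM ATP plus [33P]-γ-ATP in MOPS pH 7.0, 30 °C, 30 min. Test compound was at 500 nM (4% DMSO). Filter-retained radioactivity relative to DMSO control gave % inhibition.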

For assay [2], the target named is T2, Aurora A kinase (Homo sapiens, UniProt O14965).
T2 construct: purchased Upstate
T2 sequence (O14965 1-403): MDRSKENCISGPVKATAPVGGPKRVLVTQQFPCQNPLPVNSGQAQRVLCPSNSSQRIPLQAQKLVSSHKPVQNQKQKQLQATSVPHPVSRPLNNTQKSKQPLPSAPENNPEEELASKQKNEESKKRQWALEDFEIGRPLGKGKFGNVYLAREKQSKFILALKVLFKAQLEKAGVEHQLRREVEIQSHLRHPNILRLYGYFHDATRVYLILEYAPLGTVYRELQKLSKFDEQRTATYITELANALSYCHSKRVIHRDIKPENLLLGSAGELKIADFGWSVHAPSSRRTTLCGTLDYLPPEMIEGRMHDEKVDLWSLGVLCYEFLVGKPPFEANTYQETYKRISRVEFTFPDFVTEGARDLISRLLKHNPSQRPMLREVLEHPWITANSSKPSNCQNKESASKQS
Nature of the assay: Aurora A kinase assay ([γ-33P]ATP, CHOCKtide substrate). The settings on record: for inhibition at 1 µM: 1.0 μM test compound. In kind it is biochemical. In short, it runs like this: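 Recombinant Aurora A (1 ng) or Aurora B (2.5 ng) incubated with test compound, CHOCKtide (1 μg) and [γ-33P]ATP/ATP at 10 μM (Aurora A) or 40 μM (Aurora B), 30 min at 33 °C. Stopped with phosphoric acid; filter-bound 33P counted; IC50 = half-maximal inhibition.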

T1 sequence (P35968 834-1162 limits assumed): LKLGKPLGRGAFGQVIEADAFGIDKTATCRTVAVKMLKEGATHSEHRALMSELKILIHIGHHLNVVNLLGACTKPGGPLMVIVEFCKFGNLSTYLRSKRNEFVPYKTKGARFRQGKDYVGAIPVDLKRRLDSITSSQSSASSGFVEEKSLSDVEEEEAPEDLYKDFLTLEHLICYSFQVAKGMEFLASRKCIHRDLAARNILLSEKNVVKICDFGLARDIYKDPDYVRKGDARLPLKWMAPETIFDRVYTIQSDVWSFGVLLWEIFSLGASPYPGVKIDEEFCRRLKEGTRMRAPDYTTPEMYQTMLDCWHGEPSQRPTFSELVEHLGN

The term inhibition denotes the percentage by which the read-out fell short of the control. Consider `CCOC(=O)CCc1c(/C=C2\C(=O)Nc3cc(-c4ccc(F)cc4)ccc32)[nH]c2c1C(=O)CCC2` [DCB-70098, (Z)-6-(4-fluorophenyl)-3-((3-(3-ethoxy-3-oxopropyl)-4-oxo-4,5,6,7-tetrahydro-1H-indol-2-yl)methylene)indolin-2-one], for which the inhibition at 0.5 µM in assay [1] is 20.4%. Besides, in assay [2], the inhibition at 1 µM came to 4%.

Turning to `O=C(O)CCc1c(/C=C2\C(=O)Nc3cc(-c4ccc(F)cc4)ccc32)[nH]c2c1C(=O)CCC2` [DCB-70099, (Z)-6-(4-fluorophenyl)-3-((3-carboxyethyl-4-oxo-4,5,6,7-tetrahydro-1H-indol-2-yl)methylene)indolin-2-one], the inhibition at 0.5 µM in assay [1] was found to be 79%. Besides, testing at 1 µM in assay [2] gave an inhibition of 47.5%.

As for `CCOC(=O)CCc1c(/C=C2\C(=O)Nc3cc(-c4cc(F)cc(F)c4)ccc32)[nH]c2c1C(=O)CCC2` [DCB-70100, (Z)-6-(3,5-difluorophenyl)-3-((3-(3-ethoxy-3-oxopropyl)-4-oxo-4,5,6,7-tetrahydro-1H-indol-2-yl)methylene)indolin-2-one], the inhibition at 0.5 µM in assay [1] amounted to 17.7%. In assay [2], this compound had an inhibition at 1 µM of 9.9%.

For the compound `O=C(O)CCc1c(/C=C2\C(=O)Nc3cc(-c4cc(F)cc(F)c4)ccc32)[nH]c2c1C(=O)CCC2` [DCB-70101, (Z)-6-(3,5-difluorophenyl)-3-((3-carboxyethyl-4-oxo-4,5,6,7-tetrahydro-1H-indol-2-yl)methylene)indolin-2-one], the inhibition at 0.5 µM in assay [1] was 73.8%. Moreover, the inhibition at 1 µM in assay [2] turned out to be 38.5%.

What is called IC50 is the point on the concentration scale where inhibition reaches its midpoint. Low readings indicate higher potency, high ones lower potency. As for `CCOC(=O)CCc1c(/C=C2\C(=O)Nc3ccc(NS(=O)(=O)c4ccccc4)cc32)[nH]c2c1C(=O)CCC2` [DCB-70102, (Z)-5-phenylsulfonamido-3-((3-(3-ethoxy-3-oxopropyl)-4-oxo-4,5,6,7-tetrahydro-1H-indol-2-yl)methylene)indolin-2-one], in assay [1], the inhibition at 0.5 µM was determined as 68%. Moreover, in assay [2], the IC50 was found to be 83.5 nM and the inhibition at 1 µM worked out at 88.8%.

Take `O=C(O)CCc1c(/C=C2\C(=O)Nc3ccc(NS(=O)(=O)c4ccccc4)cc32)[nH]c2c1C(=O)CCC2` [DCB-70103, (Z)-5-phenylsulfonamido-3-((3-carboxyethyl-4-oxo-4,5,6,7-tetrahydro-1H-indol-2-yl)methylene)indolin-2-one]: the inhibition at 0.5 µM in assay [1] was 88.3%. In assay [2], this compound showed an IC50 of 12.3 nM and an inhibition at 1 µM of 98.9%.

Regarding `CC(=O)Nc1ccc2c(c1)/C(=C/c1[nH]c3c(c1CCC(=O)O)C(=O)CCC3)C(=O)N2` [DCB-70104, (Z)-5-acetamido-3-((3-carboxyethyl-4-oxo-4,5,6,7-tetrahydro-1H-indol-2-yl)methylene)indolin-2-one], the inhibition at 0.5 µM in assay [1] came to 73.8%. Also, in assay [2], the half-inhibitory concentration (IC50) is 252 nM and the inhibition at 1 µM was 83.6%.

`O=C(O)CCc1c(/C=C2\C(=O)Nc3ccc(S(=O)(=O)N4CCc5ccccc54)cc32)[nH]c2c1C(=O)CCC2` [DCB-70106, (Z)-5-(indolin-1-ylsulfonyl)-3-((3-carboxyethyl-4-oxo-4,5,6,7-tetrahydro-1H-indol-2-yl)methylene)indolin-2-one]: the inhibition at 0.5 µM in assay [1] turned out to be 46.4%. Besides, in assay [2], the half-inhibitory concentration (IC50) was 8.1 nM and the inhibition at 1 µM turned out to be 99%.

For `CN1CCN(S(=O)(=O)c2ccc3c(c2)/C(=C/c2[nH]c4c(c2CCC(=O)O)C(=O)CCC4)C(=O)N3)CC1` [DCB-70107, (Z)-5-(4-methylpiperazin-1-ylsunfonyl)-3-((3-carboxyethyl-4-oxo-4,5,6,7-tetrahydro-1H-indol-2-yl)methylene)indolin-2-one hydrochloride], in assay [1], the inhibition at 0.5 µM was 48.8%. In assay [2], this compound displayed an inhibition at 1 µM of 36%.

With `CCOC(=O)CCc1c(/C=C2\C(=O)Nc3ccc(-c4ccc(F)cc4)cc32)[nH]c2c1C(=O)CCC2` [DCB-70108, (Z)-5-(4-fluorophenyl)-3-((3-(3-ethoxy-3-oxopropyl)-4-oxo-4,5,6,7-tetrahydro-1H-indol-2-yl)methylene)indolin-2-one], in assay [1], the inhibition at 0.5 µM stood at 14.1%. For the same compound, the inhibition at 1 µM in assay [2] came out at 7.5%.
